In ChEMBL document CHEMBL3616428, “Recent developments regarding the use of thieno[2,3-d]pyrimidin-4-one derivatives in medicinal chemistry, with a focus on their synthesis and anticancer properties” (Eur J Med Chem, 2015):

How the values were obtained:
[1] = tested on: HCT-116; experiment: Anticancer activity against human HCT116 cells; assay type: functional, cell-based
[2] = tested on: HCT-116; experiment: Potency index, ratio imatinib IC50 to compound IC50 for human HCT116 cells; assay type: functional
[3] = tested on: HepG2; experiment: Anticancer activity against human HepG2 cells; assay type: functional, cell-based
[4] = tested on: HepG2; experiment: Anticancer activity against human HepG2 cells after 72 hrs by MTT assay; assay type: functional, cell-based; settings: HepG2, 72 h
[5] = tested on: HepG2; experiment: Anticancer activity against human HepG2 cells at 40 ug/ml after 72 hrs by MTT assay; assay type: functional; settings: HepG2, 72 h
[6] = Anticancer activity against human […] cells after 72 hrs by MTT assay; assay type: functional, cell-based
[7] = tested on: MCF7; experiment: Anticancer activity against human MCF7 cells at 40 ug/ml after 72 hrs by MTT assay; assay type: functional; settings: MCF7, 72 h
[8] = tested on: MCF7; experiment: Anticancer activity against human MCF7 cells after 72 hrs by MTT assay; assay type: functional, cell-based; settings: MCF7, 72 h
[9] = Anticancer activity against human Chronic myeloid leukemia cells at 10 uM after 24 hrs by MTT assay; assay type: functional; settings: Leukemia cell
[10] = Anticancer activity against human Chronic myeloid leukemia cells at 20 uM after 24 hrs by MTT assay; assay type: functional; settings: Leukemia cell
[11] = target: Poly [ADP-ribose] polymerase 1 (Homo sapiens, UniProt P09874); experiment: Inhibition of PARP1 (unknown origin)
Poly [ADP-ribose] polymerase 1, sequence (P09874 whole entry): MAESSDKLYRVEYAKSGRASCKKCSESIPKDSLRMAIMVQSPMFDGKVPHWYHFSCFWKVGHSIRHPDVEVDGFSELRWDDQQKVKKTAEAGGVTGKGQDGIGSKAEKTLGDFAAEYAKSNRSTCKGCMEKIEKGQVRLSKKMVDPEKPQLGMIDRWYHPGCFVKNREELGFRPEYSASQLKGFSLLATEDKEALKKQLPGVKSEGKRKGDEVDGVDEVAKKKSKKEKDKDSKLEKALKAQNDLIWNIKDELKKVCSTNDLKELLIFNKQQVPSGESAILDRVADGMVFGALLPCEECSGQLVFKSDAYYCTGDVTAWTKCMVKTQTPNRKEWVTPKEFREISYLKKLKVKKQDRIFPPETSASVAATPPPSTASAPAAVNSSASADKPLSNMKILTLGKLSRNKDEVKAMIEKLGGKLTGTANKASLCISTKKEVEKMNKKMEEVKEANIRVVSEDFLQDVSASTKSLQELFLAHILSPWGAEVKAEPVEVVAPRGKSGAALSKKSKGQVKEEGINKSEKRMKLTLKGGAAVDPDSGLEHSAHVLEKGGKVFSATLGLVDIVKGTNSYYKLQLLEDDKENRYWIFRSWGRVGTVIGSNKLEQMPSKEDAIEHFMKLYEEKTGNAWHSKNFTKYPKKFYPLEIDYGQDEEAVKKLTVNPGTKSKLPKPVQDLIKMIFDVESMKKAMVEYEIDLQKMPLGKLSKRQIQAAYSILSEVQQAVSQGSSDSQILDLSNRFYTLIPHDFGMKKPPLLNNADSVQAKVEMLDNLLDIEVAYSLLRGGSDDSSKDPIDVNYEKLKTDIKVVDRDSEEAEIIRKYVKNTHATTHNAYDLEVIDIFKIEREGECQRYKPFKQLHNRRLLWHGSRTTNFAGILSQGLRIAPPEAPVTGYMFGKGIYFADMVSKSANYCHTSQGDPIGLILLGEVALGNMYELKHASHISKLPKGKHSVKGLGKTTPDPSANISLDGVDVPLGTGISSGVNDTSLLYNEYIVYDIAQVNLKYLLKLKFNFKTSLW

Compound: O=c1[nH]c(CNc2ccccc2)nc2sc3c(c12)CCCCCC3
- IC50 [1]: 11.9 µM
- Ratio IC50 [2]: 2.89

Compound: O=c1[nH]c(CNc2ccc(Cl)cc2)nc2sc3c(c12)CCCCCC3
- IC50 [1]: 12.4 µM
- Ratio IC50 [2]: 1.07

Compound: CC(=O)OC[C@H](OC(C)=O)[C@@H](OC(C)=O)[C@H](OC(C)=O)[C@H](OC(C)=O)c1nc2c3c4c(sc3nc(C)n2n1)CCc1ccccc1-4
- IC50 [3]: 12 µM

Compound: O=c1c2c3c(sc2ncn1Cc1ccc(Br)cc1)CCC=C3
- IC50 [4]: 15 µM
- inhibition at 40 µg/mL [5]: 66.8%
- IC50 [6]: 45 µM
- inhibition at 40 µg/mL [7]: 66.8%
- IC50 [8]: 78.9 µM

Compound: CC(C)(O)C#Cc1ncnc2sc3c(c12)CCC3
- inhibition at 10 µM [9]: 30%
- inhibition at 20 µM [10]: 54%

Compound: Cc1csc2ncnc(C#Cc3ccccn3)c12
- inhibition at 10 µM [9]: 32%
- inhibition at 20 µM [10]: 60%

Compound: NCc1nc2sc3c(c2c(=O)[nH]1)CCC3
- IC50 [11]: 17 µM

Compound: O=c1[nH]cc(F)c(=O)[nH]1 [FLUOROURACIL]
- inhibition at 40 µg/mL [5]: 68.2%
- inhibition at 40 µg/mL [7]: 68.2%

Compound: Cc1ccc(NC(=O)c2ccc(CN3CCN(C)CC3)cc2)cc1Nc1nccc(-c2cccnc2)n1 [IMATINIB]
- IC50 [1]: 34.4 µM
